Reference: patent US6410558B1, “Fungicides for the control of take-all disease of plants” (Monsanto Technology LLC, priority 1991, dated 2002)

Tested on: Gaeumannomyces graminis var. tritici (Ggt)
Test: In vitro Assay: mycelial growth of Ggt on minimal media agar plates containing test compound
Type: cell-based
Conditions: Gaeumannomyces graminis, dark, 19-20° C., 4 to 5 days, diameter of mycelial growth; for inhibition at 0.1 ppm: 0.1 ppm in minimal media agar, read-out: In vitro (ppm) 0.1, Percent Inhibition; for inhibition at 1 ppm: 1 ppm in minimal media agar, read-out: In vitro (ppm) 1, Percent Inhibition; for inhibition at 10 ppm: 10 ppm in minimal media agar, read-out: In vitro (ppm) 10, Percent Inhibition
Outline: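 Ggt mycelial diameter read after 4 to 5 days in darkness at 19-20° C, from three 4-mm plugs placed on Czapek Dox minimal agar containing test compound delivered in acetone. Inhibition expressed as percent versus untreated plates, plug size (4 mm) subtracted from both.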

C[Si](C)(C)c1cccc(Cl)c1C(=O)NCC#N [Example 142, 2-Chloro-N-(cyanomethyl)-6-(trimethylsilyl)benzamide]
inhibition at 0.1 ppm: < 0%
inhibition at 1 ppm: < 0%
inhibition at 10 ppm: 59%

CC(CO)NC(=O)c1c(Cl)cccc1[Si](C)(C)C (stereo not drawn) [Example 154, 2-Chloro-N-(2-hydroxy-1-methylethyl)-6-(trimethylsilyl)benzamide]
inhibition at 0.1 ppm: < 0%
inhibition at 1 ppm: < 0%
inhibition at 10 ppm: 69%

C[Si](C)(C)c1cccc(Cl)c1C(=O)NCc1ccccc1 [Example 31, 2-Chloro-N-(phenylmethyl)-6-(trimethylsilyl)benzamide]
inhibition at 0.1 ppm: < 0%
inhibition at 1 ppm: 4%
inhibition at 10 ppm: 96%

CC(NC(=O)c1c(Cl)cccc1[Si](C)(C)C)c1ccccc1 (stereo not drawn) [Example 161, 2-Chloro-N-(1-phenylethyl)-6-(trimethylsilyl)benzamide]
inhibition at 0.1 ppm: 22%
inhibition at 1 ppm: 17%
inhibition at 10 ppm: 61%

CCNC(=O)n1cccc1[Si](C)(C)C [Example 178, N-Ethyl-2-(trimethylsilyl)-1H-pyrrole-1-carboxamide]
inhibition at 0.1 ppm: < 0%
inhibition at 1 ppm: 15%
inhibition at 10 ppm: 54%

CCN(CC)C(=O)c1c([Si](C)(C)C)ccc([Si](C)(C)C)c1Cl [Example 86, N,N-Diethyl-2-chloro-3,6-bis(trimethylsilyl)benzamide]
inhibition at 0.1 ppm: < 0%
inhibition at 1 ppm: 24%
inhibition at 10 ppm: 72%

C[Si](C)(C)c1cccc(Cl)c1C(=O)NCc1cccs1 [Example 138, 2-Chloro-N-(2-thienylmethyl)-6-(trimethylsilyl)benzamide]
inhibition at 0.1 ppm: 14%
inhibition at 1 ppm: 36%
inhibition at 10 ppm: 97%

CC1CCCC(C)N1C(=O)c1c(Cl)cccc1[Si](C)(C)C (stereo not drawn) [Example 131, N-[2-Chloro-6-(trimethylsilyl)benzoyl]-2,6-dimethylpiperidine]
inhibition at 0.1 ppm: < 0%
inhibition at 1 ppm: 6%
inhibition at 10 ppm: 3%

COCCNC(=O)c1c(Cl)cccc1[Si](C)(C)C [Example 146, 2-Chloro-N-(2-methoxyethyl)-6-(trimethylsilyl)benzamide]
inhibition at 0.1 ppm: 14%
inhibition at 1 ppm: 65%
inhibition at 10 ppm: 84%

CCNC(=O)c1c([Si](C)(C)C)ccc(C(C)=O)c1Cl [Example 243, 3-Acetyl-2-chloro-N-ethyl-6-(trimethylsilyl)benzamide]
inhibition at 0.1 ppm: 23%
inhibition at 1 ppm: 10%
inhibition at 10 ppm: 83%

CCNC(=O)c1c([Si](C)(C)C)ccc(Cl)c1Cl [Example 203, 2,3-Dichloro-N-ethyl-6-(trimethylsilyl)benzamide]
inhibition at 0.1 ppm: 79%
inhibition at 1 ppm: 84%
inhibition at 10 ppm: 91%

COc1ccc(CNC(=O)c2c(Cl)cccc2[Si](C)(C)C)cc1 [Example 136, 2-Chloro-N-[(4-methoxyphenyl)methyl]-6-(trimethylsilyl)benzamide]
inhibition at 0.1 ppm: 3%
inhibition at 1 ppm: 26%
inhibition at 10 ppm: 100%

CCN(CC)C(=O)c1c([Si](C)(C)C)coc1[Si](C)(C)C [Example 250, N,N-Diethyl-2,4-bis(trimethylsilyl)-3-furancarboxamide]
inhibition at 0.1 ppm: < 0%
inhibition at 1 ppm: < 0%
inhibition at 10 ppm: 41%

CC(C)N(C)C(=O)c1c(Cl)cccc1[Si](C)(C)C [Example 164, 2-Chloro-N-methyl-N-(1-methylethyl)-6-(trimethylsilyl)benzamide]
inhibition at 0.1 ppm: 3%
inhibition at 1 ppm: 3%
inhibition at 10 ppm: 70%

CCNC(=O)c1cc(NC(=O)c2ccccc2)ccc1[Si](C)(C)C [Example 240, 5-(Benzoylamino)-N-ethyl-2-(trimethylsilyl)benzamide]
inhibition at 0.1 ppm: 26%
inhibition at 1 ppm: 22%
inhibition at 10 ppm: 65%

C=Cc1ccc([Si](C)(C)C)c(C(=O)NCC)c1Cl [Example 277, 2-Chloro-3-ethenyl-N-ethyl-6-(trimethylsilyl)benzamide]
inhibition at 0.1 ppm: 69%
inhibition at 1 ppm: 81%
inhibition at 10 ppm: 94%

C[Si](C)(C)c1cccc(Cl)c1C(=O)NCc1ccc2c(c1)OCO2 [Example 144, N-(1,3-benzodioxol-5-ylmethyl)-2-chloro-6-(trimethylsilyl)benzamide]
inhibition at 0.1 ppm: < 0%
inhibition at 1 ppm: 11%
inhibition at 10 ppm: 59%

CCNC(=O)Nc1c(Cl)cccc1[Si](C)(C)C [Example 110, N-[2-Chloro-6-(trimethylsilyl)phenyl]-N′-ethylurea]
inhibition at 0.1 ppm: 7%
inhibition at 1 ppm: 17%
inhibition at 10 ppm: 45%

CCN(C)C(=O)c1c(Cl)cccc1N(C)C(C)(C)C [Example 189, 2-Chloro-6-[(1,1-dimethylethyl)methylamino]-N-ethyl-N-methylbenzamide]
inhibition at 0.1 ppm: 4%
inhibition at 1 ppm: 13%
inhibition at 10 ppm: 65%

CCOP(=O)(OCC)N(CC)C(=O)c1c(Cl)cccc1[Si](C)(C)C [Example 278, [2-Chloro-6-(trimethylsilyl)benzoyl]ethylphosphoramidic acid, diethyl ester]
inhibition at 0.1 ppm: < 0%
inhibition at 1 ppm: 50%
inhibition at 10 ppm: 75%

CCNC(=O)c1cc(C(F)(F)F)ccc1[Si](C)(C)C [Example 225, N-Ethyl-5-(trifluoromethyl)-2-(trimethylsilyl)benzamide]
inhibition at 0.1 ppm: 18%
inhibition at 1 ppm: 64%
inhibition at 10 ppm: 95%

CCN(CC)C(=O)c1c([Si](C)(C)C)ccc(Cl)c1Cl [Example 84, N,N-Diethyl-2,3-dichloro-6-(trimethylsilyl)benzamide]
inhibition at 0.1 ppm: < 0%
inhibition at 1 ppm: 66%
inhibition at 10 ppm: 100%

CCN(CC)C(=O)c1cccc(F)c1[Si](C)(C)C(C)(C)C [Example 9, 2-[(1,1-Dimethylethyl)dimethylsilyl]-N,N-diethyl-3-fluorobenzamide]
inhibition at 0.1 ppm: 3%
inhibition at 1 ppm: < 0%
inhibition at 10 ppm: 71%

Cc1ccccc1NC(=O)c1c(Br)cccc1[Si](C)(C)C [Example 120, 2-Bromo-N-(2-methylphenyl)-6-(trimethylsilyl)benzamide]
inhibition at 0.1 ppm: < 0%
inhibition at 1 ppm: 26%
inhibition at 10 ppm: 100%

CCN(COC)C(=O)c1ccccc1[Si](C)(C)C [Example 50, N-Ethyl-N-(methoxymethyl)-2-(trimethylsilyl)benzamide]
inhibition at 0.1 ppm: 3%
inhibition at 1 ppm: 10%
inhibition at 10 ppm: 20%

CC(C)SC(=O)c1c(Cl)cccc1[Si](C)(C)C [Example 78, 2-Chloro-6-(trimethylsilyl)-benzenecarbothioic acid, S-(1-methylethyl) ester]
inhibition at 0.1 ppm: 12%
inhibition at 1 ppm: 12%
inhibition at 10 ppm: 62%

CCNC(=O)c1c([Si](C)(C)C)ccc(I)c1Cl [Example 239, 2-Chloro-N-ethyl-3-iodo-6-(trimethylsilyl)benzamide]
inhibition at 0.1 ppm: 22%
inhibition at 1 ppm: 57%
inhibition at 10 ppm: 87%

CCNC(=O)c1sc(SC)cc1[Si](C)(C)C [Example 261, N-Ethyl-5-(methylthio)-3-(trimethylsilyl)-2-thiophenecarboxamide]
inhibition at 0.1 ppm: 14%
inhibition at 1 ppm: 25%
inhibition at 10 ppm: 78%

CCNC(=O)c1c([Si](C)(C)C)ccc(C#C[Si](C)(C)C)c1Cl [Example 276, 2-Chloro-N-ethyl-6-(trimethylsilyl)-3-[(trimethylsilyl)ethynyl]benzamide]
inhibition at 0.1 ppm: < 0%
inhibition at 1 ppm: 63%
inhibition at 10 ppm: 84%

COc1cccc(CNC(=O)c2c(Cl)cccc2[Si](C)(C)C)c1 [Example 139, 2-Chloro-N-[(3-methoxyphenyl)methyl]-6-(trimethylsilyl)benzamide]
inhibition at 0.1 ppm: 11%
inhibition at 1 ppm: 53%
inhibition at 10 ppm: 100%

CC(C)CSC(=O)c1c(Cl)cccc1[Si](C)(C)C [Example 81, 2-Chloro-6-(trimethylsilyl)-benzenecarbothioic acid, S-(2-methylpropyl) ester]
inhibition at 0.1 ppm: < 0%
inhibition at 1 ppm: < 0%
inhibition at 10 ppm: 46%

CCN(CC)C(=O)c1c(F)cccc1[S+]([O-])C(C)(C)C (stereo not drawn) [Example 195, N,N-Diethyl 2-[(1,1-dimethylethyl)sulfinyl]-6-fluorobenzamide]
inhibition at 0.1 ppm: 35%
inhibition at 1 ppm: 29%
inhibition at 10 ppm: 56%

CCNC(=O)c1cccn1C[Si](C)(C)C [Example 253, N-Ethyl-1-[(trimethylsilyl)methyl]-1H-pyrrole-2-carboxamide]
inhibition at 0.1 ppm: < 0%
inhibition at 1 ppm: 14%
inhibition at 10 ppm: 62%

CC(C)CNC(=O)c1c(Cl)cccc1[Si](C)(C)C [Example 162, 2-Chloro-N-(2-methylpropyl)-6-(trimethylsilyl)benzamide]
inhibition at 0.1 ppm: 3%
inhibition at 1 ppm: < 0%
inhibition at 10 ppm: 57%

CC(C)NC(=O)NC(=O)c1c(Cl)cccc1[Si](C)(C)C [Example 173, 2-Chloro-N-(isopropylaminocarbonyl)-6-(trimethylsilyl)benzamide]
inhibition at 0.1 ppm: 4%
inhibition at 1 ppm: 12%
inhibition at 10 ppm: 92%

CCNC(=O)c1occc1[Si](C)(C)C [Example 252, N-Ethyl-3-(trimethylsilyl)-2-furancarboxamide]
inhibition at 0.1 ppm: 5%
inhibition at 1 ppm: 28%
inhibition at 10 ppm: 100%

CCc1cccc([Si](C)(C)C)c1C(=O)N(CC)CC [Example 44, N,N,2-Triethyl-6-(trimethylsilyl)benzamide]
inhibition at 0.1 ppm: < 0%
inhibition at 1 ppm: < 0%
inhibition at 10 ppm: 39%
